Laboratory results from patent publication USRE48267E1, “Variants of C-type natriuretic peptide” (priority 2009, dated 2020).
Where a SMILES comes first, the peptide text is derived from it. Bridges are numbered along the chain shown (N, C = ends). Where no end group is shown, it is not given here. [ ]: non-standard residue; d: D form. The star is where a group is joined. NMeL = CN[C@@H](CC(C)C)C(=O)O; Heptanoyl = CCCCCCC(=O)*

T1: NPR-B (Mus musculus, UniProt Q6VVW5)
T1 construct: Murine NIH3T3 cells express endogenously the CNP signaling receptor, NPR-B; endogenous in cells; host or cells: NIH3T3
T1 sequence (Q6VVW5 17-1047): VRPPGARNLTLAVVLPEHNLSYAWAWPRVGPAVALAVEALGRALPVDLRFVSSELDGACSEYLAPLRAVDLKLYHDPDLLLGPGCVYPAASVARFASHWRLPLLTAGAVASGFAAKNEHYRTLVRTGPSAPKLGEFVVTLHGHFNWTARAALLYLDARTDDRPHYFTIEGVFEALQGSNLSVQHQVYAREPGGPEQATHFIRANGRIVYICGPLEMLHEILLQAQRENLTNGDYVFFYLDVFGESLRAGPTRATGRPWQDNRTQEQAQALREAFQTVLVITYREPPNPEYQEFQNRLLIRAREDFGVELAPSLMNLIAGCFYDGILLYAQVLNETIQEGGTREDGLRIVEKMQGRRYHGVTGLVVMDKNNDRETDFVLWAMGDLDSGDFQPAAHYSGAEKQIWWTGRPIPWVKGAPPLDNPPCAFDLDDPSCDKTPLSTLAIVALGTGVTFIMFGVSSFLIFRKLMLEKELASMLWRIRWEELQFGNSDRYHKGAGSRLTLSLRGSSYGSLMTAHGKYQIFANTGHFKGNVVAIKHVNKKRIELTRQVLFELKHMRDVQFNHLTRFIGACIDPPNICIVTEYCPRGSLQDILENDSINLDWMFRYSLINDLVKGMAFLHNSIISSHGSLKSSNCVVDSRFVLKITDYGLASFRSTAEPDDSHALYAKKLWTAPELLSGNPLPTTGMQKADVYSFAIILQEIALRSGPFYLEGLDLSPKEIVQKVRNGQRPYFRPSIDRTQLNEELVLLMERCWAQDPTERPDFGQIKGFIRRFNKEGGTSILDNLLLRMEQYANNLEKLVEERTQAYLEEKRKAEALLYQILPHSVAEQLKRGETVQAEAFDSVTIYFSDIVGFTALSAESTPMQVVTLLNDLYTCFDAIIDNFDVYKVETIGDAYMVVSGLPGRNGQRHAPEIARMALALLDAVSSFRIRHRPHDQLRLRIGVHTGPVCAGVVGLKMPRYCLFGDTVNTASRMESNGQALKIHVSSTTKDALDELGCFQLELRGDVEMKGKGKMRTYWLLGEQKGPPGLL

T2: NPR-B (natriuretic peptide receptor B), murine, expressed endogenously on NIH3T3 cells (murine, UniProt Q6VVW5 17-1047)
T2 sequence (looked up): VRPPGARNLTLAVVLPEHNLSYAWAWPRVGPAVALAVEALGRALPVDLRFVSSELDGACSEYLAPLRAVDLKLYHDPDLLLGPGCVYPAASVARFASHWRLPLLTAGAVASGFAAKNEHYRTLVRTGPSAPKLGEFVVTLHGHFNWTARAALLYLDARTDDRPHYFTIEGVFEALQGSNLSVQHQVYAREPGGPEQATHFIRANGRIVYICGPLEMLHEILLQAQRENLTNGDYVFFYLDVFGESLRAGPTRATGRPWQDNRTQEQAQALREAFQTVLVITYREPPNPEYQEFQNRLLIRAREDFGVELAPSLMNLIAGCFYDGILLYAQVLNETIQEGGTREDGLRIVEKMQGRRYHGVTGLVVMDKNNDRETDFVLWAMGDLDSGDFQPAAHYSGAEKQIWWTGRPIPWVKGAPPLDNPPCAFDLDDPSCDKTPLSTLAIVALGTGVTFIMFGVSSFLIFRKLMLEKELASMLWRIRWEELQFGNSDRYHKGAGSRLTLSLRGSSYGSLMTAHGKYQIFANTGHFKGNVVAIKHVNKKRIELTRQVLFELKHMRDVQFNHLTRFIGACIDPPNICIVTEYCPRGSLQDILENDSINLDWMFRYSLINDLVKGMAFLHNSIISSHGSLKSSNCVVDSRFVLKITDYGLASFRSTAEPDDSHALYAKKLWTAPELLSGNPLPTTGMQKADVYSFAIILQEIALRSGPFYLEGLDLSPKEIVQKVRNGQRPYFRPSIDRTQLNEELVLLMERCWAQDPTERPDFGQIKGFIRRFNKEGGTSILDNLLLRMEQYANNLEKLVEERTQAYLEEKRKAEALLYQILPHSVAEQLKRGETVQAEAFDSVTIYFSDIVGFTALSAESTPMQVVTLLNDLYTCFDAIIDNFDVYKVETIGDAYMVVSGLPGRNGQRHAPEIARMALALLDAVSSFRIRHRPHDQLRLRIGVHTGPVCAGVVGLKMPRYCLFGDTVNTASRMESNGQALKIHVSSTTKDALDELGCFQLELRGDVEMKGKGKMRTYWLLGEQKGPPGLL


Experiments:
[1] = biological target: Recombinant human NEP (Homo sapiens, UniProt P08473); experiment: in vitro NEP cleavage assay (disappearance of non-cleaved CNP variant); conditions: for NEP Cleavage (t1/2, min): 100 uM peptide, 1 ug/mL NEP, 0.1 M Tris pH 7, 37° C., adjusted t1/2, CNP22 normalized to 80 min
Procedure, shortened: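 Recombinant human NEP (1 ug/mL final) incubated with 100 uM CNP variant in 0.1 M Tris, pH 7, at 37° C for various times, then quenched with EDTA (10 mM final) and heat. Samples reduced and analysed by HPLC and mass spectrometry. Half-life derived from loss of intact variant over time.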

[2] = biological target: T1, NPR-B; experiment: stimulation of cGMP production in NIH3T3 cells; type: cell-based, murine; conditions: for cGMP Response rel. to 1 uM CNP22, 10 nM: NIH3T3 cells exposed to 10 nM peptide; for cGMP Response rel. to 1 uM CNP22, 10 nM / cGMP Response rel. to 1 uM CNP22, 1 uM: normalized to cell number and cGMP production in the presence of 1 uM wtCNP22; for cGMP Response rel. to 1 uM CNP22, 1 uM: NIH3T3 cells exposed to 1 uM peptide
Protocol: To determine the functional activity of CNP variants, the production of cGMP was measured in NIH3T3 cells exposed to the CNP variants. Murine NIH3T3 cells express endogenously the CNP signaling receptor, NPR-B, which shares 98% protein sequence identity with human NPR-B. NIH3T3 cells were cultured in high glucose Dulbecco's Modified Eagle Medium supplemented with 10% fetal calf serum and antibiotics at 37° C. with 5% CO2). Twenty four to 48 hours prior to signaling, cells were passaged to 12-well plates with a density of 2-5×10^5 cells per well at the time of the assay. CNP variants were resuspended in 1 mM HCl to a stock concentration of 1 mg/mL (455 uM for wtCNP22) and subsequently diluted to a 30 uM working stock solution with phosphate-buffered saline (PBS). Ten-fold serial dilutions were prepared in phosphate-buffered saline. Culture medium was removed from the cells and replaced with 0.4 mL PBS/Dulbecco's modified Eagle medium (50/50, v/v) containing 0.75 mM isobutylmethylxanine. Plates were incubated at 37° C., 5% CO2 for 15 minutes before addition of 0.2 mL CNP variant in PBS and continued incubation at 37° C. for 15 minutes. Reactions were stopped by the addition of 0.2 mL lysis buffer supplied with the CatchPoint cGMP assay kit (Molecular Devices), and cGMP production was determined with the CatchPoint cGMP Assay (Molecular Devices). All stimulation experiments were performed in duplicate.
Tables 1-4 summarize the ability of CNP variants having backbone or side chain modifications, amino acid substitutions, N-terminal amino acid extensions, and/or N-terminal PEGylation, respectively, to stimulate cGMP production in NIH3T3 cells. In all four tables, the values for cGMP production in NIH3T3 cells exposed to 10 nM or 1 uM CNP variant are normalized to cell number and cGMP production in the presence of 1 uM wtCNP22.

[3] = biological target: T2, NPR-B (natriuretic peptide receptor B), …; experiment: cell-based or functional assay

Sequence of Recombinant human NEP (P08473 whole entry): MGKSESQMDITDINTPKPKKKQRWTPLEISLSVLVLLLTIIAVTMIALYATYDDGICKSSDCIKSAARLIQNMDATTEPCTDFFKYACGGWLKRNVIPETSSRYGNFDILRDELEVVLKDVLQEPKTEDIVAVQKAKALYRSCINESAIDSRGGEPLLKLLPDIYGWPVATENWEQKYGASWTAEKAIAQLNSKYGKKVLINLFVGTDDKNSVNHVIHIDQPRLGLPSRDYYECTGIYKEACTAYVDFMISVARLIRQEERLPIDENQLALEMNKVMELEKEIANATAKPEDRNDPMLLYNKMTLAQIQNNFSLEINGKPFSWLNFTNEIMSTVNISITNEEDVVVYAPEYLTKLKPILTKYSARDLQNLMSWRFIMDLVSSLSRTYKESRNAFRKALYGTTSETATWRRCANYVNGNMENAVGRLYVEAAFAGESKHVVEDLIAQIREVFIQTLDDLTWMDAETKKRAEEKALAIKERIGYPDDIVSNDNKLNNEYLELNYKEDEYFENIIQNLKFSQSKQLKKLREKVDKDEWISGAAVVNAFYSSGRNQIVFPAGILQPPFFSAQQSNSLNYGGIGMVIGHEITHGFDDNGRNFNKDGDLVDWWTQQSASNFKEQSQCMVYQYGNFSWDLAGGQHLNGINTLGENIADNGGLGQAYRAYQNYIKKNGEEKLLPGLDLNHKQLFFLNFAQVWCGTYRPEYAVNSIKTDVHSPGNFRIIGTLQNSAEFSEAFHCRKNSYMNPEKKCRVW

Molecule | cGMP Response rel. to 1 uM CNP22, 10 nM [2] | cGMP Response rel. to 1 uM CNP22, 1 uM [2] | cGMP response rel. to 1 uM CNP22; 10 nM peptide, NIH3T3 cells [3] | cGMP response rel. to 1 uM CNP22; 1 uM peptide, NIH3T3 cells [3] | other results
CC[C@H](C)[C@@H]1NC(=O)[C@H](CCCNC(=N)N)NC(=O)[C@H](CC(=O)O)NC(=O)[C@H](CC(C)C)NC(=O)[C@H](CCCCN)NC(=O)[C@H](CC(C)C)NC(=O)CNC(=O)[C@H](Cc2ccccc2)NC(=O)[C@@H](NC(=O)CNC(=O)[C@H](CCCNC(=N)N)NC(=O)[C@H](CO)NC(=O)[C@H](CC(C)C)NC(=O)CN)CSSC[C@@H](C(=O)O)NC(=O)CNC(=O)[C@H](CC(C)C)NC(=O)CNC(=O)[C@H](CO)NC(=O)[C@H](CCSC)NC(=O)[C@H](CO)NC(=O)[C@H](CC(N)=O)NC1=O [Analog BJ, CNP22, K4R, G15N] (H-GLSRGCFGLKLDRINSMSGLGC-OH; disulfide 6-22; N-terminus and C-terminus assumed) | 4 | 41 | – | – | resistance to NEP cleavage (in words) [1]: greatest resistance to NEP cleavage
CC[C@H](C)[C@@H]1NC(=O)[C@H](CCCNC(=N)N)NC(=O)[C@H](CC(=O)O)NC(=O)[C@H](CC(C)C)NC(=O)[C@H](CCCCN)NC(=O)[C@H](CC(C)C)NC(=O)CNC(=O)[C@H](Cc2cccc(Cl)c2)NC(=O)[C@@H](NC(=O)CNC(=O)[C@H](CCCCN)NC(=O)[C@H](CO)NC(=O)[C@H](CC(C)C)NC(=O)CN)CSSC[C@@H](C(=O)O)NC(=O)CNC(=O)[C@H](CC(C)C)NC(=O)CNC(=O)[C@H](CO)NC(=O)[C@H](CCSC)NC(=O)[C@H](CO)NC(=O)CNC1=O [Analog G] | 17 | 93 | – | – | resistance to cleavage at the Cys6-Phe7 bond relative to wtCNP22 [1]: resistance or improved resistance; NEP Cleavage (t1/2, min) [1]: 135 min; half-life compared to those for Analogs A, B, F and H ([1]; human): 1.5-2.5 fold; half-life in comparison to wtCNP22 ([1]; human): about 1.5 times
CC[C@H](C)[C@@H]1NC(=O)[C@H](CCCNC(=N)N)NC(=O)[C@H](CC(=O)O)NC(=O)[C@H](CC(C)C)N(C)C(=O)[C@H](CCCCN)NC(=O)[C@H](CC(C)C)N(C)C(=O)CNC(=O)[C@H](Cc2ccccc2)NC(=O)[C@@H](NC(=O)CNC(=O)[C@H](CCCCN)NC(=O)[C@H](CO)NC(=O)[C@H](CC(C)C)NC(=O)CN)CSSC[C@@H](C(=O)O)NC(=O)CNC(=O)[C@H](CC(C)C)N(C)C(=O)CNC(=O)[C@H](CO)NC(=O)[C@H](CCSC)NC(=O)[C@H](CO)NC(=O)CNC1=O [Analog L, CNP22, N-methyl-L9, N-methyl-L11, N-methyl-L20] | 18 | 10 | – | – | resistance to NEP cleavage (in words) [1]: substantially shorter half-life
CCCCCCC(=O)N[C@@H](CCC(=O)O)C(=O)N[C@@H](CC(C)C)C(=O)N[C@@H](CO)C(=O)N[C@@H](CCCCN)C(=O)NCC(=O)N[C@H]1CSSC[C@@H](C(=O)O)NC(=O)CNC(=O)[C@H](CC(C)C)NC(=O)CNC(=O)[C@H](CO)NC(=O)[C@H](CCSC)NC(=O)[C@H](CO)NC(=O)CNC(=O)[C@H]([C@@H](C)CC)NC(=O)[C@H](CCCNC(=N)N)NC(=O)[C@H](CC(=O)O)NC(=O)[C@H](CC(C)C)NC(=O)[C@H](CCCCN)NC(=O)[C@H](CC(C)C)NC(=O)CNC(=O)[C@H](Cc2ccccc2)NC1=O [Analog BB, Heptanoic acid (N-term.)-CNP22, G1E] (Heptanoyl-ELSKGCFGLKLDRIGSMSGLGC-OH; disulfide 6-22) | 32 ± 4 | 84 ± 19 | – | – | NEP Cleavage (t1/2, min) [1]: 45 to 65 min; NPR-B stimulation activity / cGMP production compared with wtCNP22 (in words) ([2]; NIH3T3 cells): comparable NPR-B stimulation activity as wtCNP22
GLSKGCFG[NMeL]KLDRIGSMSGLGC (ends and bridges not checked) [CNP22, N-methyl-L9] | – | – | 2 rel. to 1 uM CNP22 (100) | 8 rel. to 1 uM CNP22 (100) | –
GLSKGCFG[NMeL]K[NMeL]DRIGSMSGLGC (ends and bridges not checked) [CNP22, N-methyl-L9, N-methyl-L11] | – | – | 1 rel. to 1 uM CNP22 (100) | 11 rel. to 1 uM CNP22 (100) | –
GLSKGCFGLKLDRIGSMSG[NMeL]GC (ends and bridges not checked) [CNP22, N-methyl-L20] | – | – | 2 rel. to 1 uM CNP22 (100) | 5 rel. to 1 uM CNP22 (100) | –
